Source: patent US20020137929A1, “1 - (3-heterocyclylphenyl) isothiourea, -isourea, -guanidine and -amidine herbicidal agents” (Intellectual Property Department, BASF Aktiengesellschaft, priority 1998, published 2002)

Key:
SETVI (Foxtail, Green) [1] = test: Preemergence herbicidal evaluation; type: in vivo, Setaria viridis; details: rated 4-5 weeks after treatment
How it was run: (§1)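 Scores use a 0–9 visual scale covering stand, vigor, malformation, size and chlorosis relative to controls, rated four to five weeks after treatment. Before emergence, soil-planted seeds were sprayed with compound in aqueous acetone at roughly 0.0156–0.500 kg/ha and held in the greenhouse.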

ORYSAT (Rice, Tebonnet) = test: Postemergence herbicidal evaluation; type: in vivo, Oryza sativa, (L.) Tebonnet; details: postemergence
How it was run: (§2)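 Young plants, roughly two weeks from seeding, receive the active ingredient as a sprayed dispersion (acetone/water 50/50, 0.5% TWEEN 20) at 40 psi. Doses span about 0.0156 to 0.500 kg/ha. A visual score from 0 to 9 compares treated with control plants four to five weeks on.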

[2] = tested on: ECHORC (Watergrass (Calif.)); test: Preemergence weed control under flooded paddy conditions; type: in vivo, Echinochloa oryzoides; details: rated 3-4 weeks after treatment
How it was run: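 First, seeds or propagules go into the top 0.5 cm of silt loam; next, water is held 1.5 to 3 cm over the soil; then compound (50/50 acetone/water) is pipetted into it at about 0.0313 to 0.500 kg/ha; finally plants are rated visually 0-9 after three to four weeks.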

CASOB (Sicklepod) [3] = test: Preemergence herbicidal evaluation; type: in vivo, Cassia obtusifolia; details: rated 4-5 weeks after treatment
How it was run: as §1

[4] = tested on: SAGPY (Arrowhead (Pygmaea)); test: Preemergence weed control under flooded paddy conditions; type: in vivo, Sagittaria pygmaea; details: rated 3-4 weeks after treatment
How it was run: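 Seeds or propagules sown in top 0.5 cm of silt loam soil, flooded 1.5 to 3 cm above surface throughout. Compound in 50/50 v/v aqueous/acetone pipetted into flood water at about 0.0313 to 0.500 kg/ha. Visual 0-9 rating versus control after three to four weeks in greenhouse.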

CASOB (Sicklepod) [5] = test: Postemergence herbicidal evaluation; type: in vivo, Cassia obtusifolia; details: postemergence
How it was run: as §2

[6] = tested on: IPOHE (Morningglory, Ivyleaf); test: Postemergence herbicidal evaluation; type: in vivo, Ipomoea hederacea; details: postemergence
How it was run: as §2

AMBEL (Ragweed, Common) [7] = test: Preemergence herbicidal evaluation; type: in vivo, Ambrosia artemisifolia; details: rated 4-5 weeks after treatment
How it was run: as §1

[8] = tested on: CHEAL (Lambsquarters, Common); test: Preemergence herbicidal evaluation; type: in vivo, Chenopodium album; details: rated 4-5 weeks after treatment
How it was run: as §1

GALAP (Galium) [9] = test: Preemergence herbicidal evaluation; type: in vivo, Galium aparine; details: rated 4-5 weeks after treatment
How it was run: as §1

SETVI (Foxtail, Green) [10] = test: Postemergence herbicidal evaluation; type: in vivo, Setaria viridis; details: postemergence
How it was run: as §2

AMBEL (Ragweed, Common) [11] = test: Postemergence herbicidal evaluation; type: in vivo, Ambrosia artemisifolia; details: postemergence
How it was run: as §2

ZEAMX (Corn, Field) = test: Postemergence herbicidal evaluation; type: in vivo, Zea mays; details: postemergence
How it was run: as §2

[12] = tested on: TRZAWR (Wheat, Winter, cv Riband); test: Postemergence herbicidal evaluation; type: in vivo, Triticum aestivum; details: postemergence
How it was run: as §2

ECHCG (Barnyardgrass) = test: Preemergence herbicidal evaluation; type: in vivo, Echinochloa crus-galli; details: rated 4-5 weeks after treatment
How it was run: as §1

[13] = tested on: TRZAWR (Wheat, Winter, cv Riband); test: Preemergence herbicidal evaluation; type: in vivo, Triticum aestivum; details: rated 4-5 weeks after treatment
How it was run: as §1

GALAP (Galium) [14] = test: Postemergence herbicidal evaluation; type: in vivo, Galium aparine; details: postemergence
How it was run: as §2

CCOC(=O)CN1C(=O)C(CC(=O)NS(=O)(=O)C(C)C)SC1=Nc1cc(-n2c(=O)cc(C(F)(F)F)n(C)c2=O)c(F)cc1Cl (stereo not shown) [Compound 117, Ethyl 2-{{2-chloro-5-[3,6-dihydro-3-methyl-2,6-dioxo-4-(trifluoromethyl)-1(2H)-pyrimidinyl]-4-fluorophenyl}imino}-5-{[(isopropylsulfonyl)-carbamoyl]methyl}-4-oxo-3-thiazolidineacetate]
2.0: herbicidal rating ORYSAT (ORYSAT (Rice, Tebonnet); rate 0.0158 kg/ha) | herbicidal rating ORYSAT (ORYSAT (Rice, Tebonnet); rate 0.0315 kg/ha) | herbicidal rating SETVI (SETVI (Foxtail, Green) [10]; rate 0.0315 kg/ha) | herbicidal rating SETVI (SETVI (Foxtail, Green) [10]; rate 0.0630 kg/ha)
3.5: herbicidal rating TRZAWR ([12]; rate 0.0315 kg/ha) | herbicidal rating TRZAWR ([12]; rate 0.0630 kg/ha)
7.0: Preemergence herbicidal rating AMBEL (AMBEL (Ragweed, Common) [7]; rate 0.2500 kg/ha) | Preemergence herbicidal rating GALAP (GALAP (Galium) [9]; rate 0.2500 kg/ha) | herbicidal rating AMBEL (AMBEL (Ragweed, Common) [11]; rate 0.0630 kg/ha)
5.0: herbicidal rating AMBEL (AMBEL (Ragweed, Common) [11]; rate 0.0315 kg/ha) | herbicidal rating ZEAMX (ZEAMX (Corn, Field); rate 0.0315 kg/ha) | herbicidal rating ZEAMX (ZEAMX (Corn, Field); rate 0.0630 kg/ha)
4.5: herbicidal rating ZEAMX (ZEAMX (Corn, Field); rate 0.0158 kg/ha)
0.0: Preemergence herbicidal rating SETVI (SETVI (Foxtail, Green) [1]; rate 0.0313 kg/ha) | Preemergence herbicidal rating SETVI (SETVI (Foxtail, Green) [1]; rate 0.1250 kg/ha) | Preemergence herbicidal rating SETVI (SETVI (Foxtail, Green) [1]; rate 0.2500 kg/ha) | herbicidal effect rating, ECHORC ([2]; 0.0313 kg/ha) | herbicidal effect rating, ECHORC ([2]; 0.0625 kg/ha) | herbicidal effect rating, ECHORC ([2]; 0.1250 kg/ha) | herbicidal effect rating, ECHORC ([2]; 0.2500 kg/ha) | Preemergence herbicidal rating CASOB (CASOB (Sicklepod) [3]; rate 0.0156 kg/ha) | Preemergence herbicidal rating CASOB (CASOB (Sicklepod) [3]; rate 0.0313 kg/ha) | Preemergence herbicidal rating CASOB (CASOB (Sicklepod) [3]; rate 0.0625 kg/ha) | herbicidal effect rating, SAGPY ([4]; 0.0313 kg/ha) | herbicidal effect rating, SAGPY ([4]; 0.0625 kg/ha) | herbicidal effect rating, SAGPY ([4]; 0.1250 kg/ha) | herbicidal effect rating, SAGPY ([4]; 0.2500 kg/ha) | herbicidal rating CASOB (CASOB (Sicklepod) [5]; rate 0.0158 kg/ha) | Preemergence herbicidal rating AMBEL (AMBEL (Ragweed, Common) [7]; rate 0.0156 kg/ha) | Preemergence herbicidal rating AMBEL (AMBEL (Ragweed, Common) [7]; rate 0.0313 kg/ha) | Preemergence herbicidal rating AMBEL (AMBEL (Ragweed, Common) [7]; rate 0.0625 kg/ha) | Preemergence herbicidal rating AMBEL (AMBEL (Ragweed, Common) [7]; rate 0.1250 kg/ha) | Preemergence herbicidal rating GALAP (GALAP (Galium) [9]; rate 0.0156 kg/ha) | Preemergence herbicidal rating GALAP (GALAP (Galium) [9]; rate 0.0313 kg/ha) | Preemergence herbicidal rating GALAP (GALAP (Galium) [9]; rate 0.0625 kg/ha) | Preemergence herbicidal rating ECHCG (ECHCG (Barnyardgrass); rate 0.0156 kg/ha) | Preemergence herbicidal rating ECHCG (ECHCG (Barnyardgrass); rate 0.0313 kg/ha) | Preemergence herbicidal rating ECHCG (ECHCG (Barnyardgrass); rate 0.0625 kg/ha) | Preemergence herbicidal rating ECHCG (ECHCG (Barnyardgrass); rate 0.1250 kg/ha) | Preemergence herbicidal rating ECHCG (ECHCG (Barnyardgrass); rate 0.2500 kg/ha) | Preemergence herbicidal rating TRZAWR ([13]; rate 0.0156 kg/ha) | Preemergence herbicidal rating TRZAWR ([13]; rate 0.0313 kg/ha) | Preemergence herbicidal rating TRZAWR ([13]; rate 0.0625 kg/ha) | Preemergence herbicidal rating TRZAWR ([13]; rate 0.1250 kg/ha) | Preemergence herbicidal rating TRZAWR ([13]; rate 0.2500 kg/ha)
3.0: herbicidal rating ORYSAT (ORYSAT (Rice, Tebonnet); rate 0.0630 kg/ha) | Preemergence herbicidal rating GALAP (GALAP (Galium) [9]; rate 0.1250 kg/ha) | herbicidal rating TRZAWR ([12]; rate 0.0158 kg/ha)
4.0: herbicidal rating AMBEL (AMBEL (Ragweed, Common) [11]; rate 0.0158 kg/ha)
9.0: herbicidal rating IPOHE ([6]; rate 0.0158 kg/ha) | herbicidal rating IPOHE ([6]; rate 0.0315 kg/ha) | herbicidal rating IPOHE ([6]; rate 0.0630 kg/ha) | Preemergence herbicidal rating CHEAL ([8]; rate 0.0156 kg/ha) | Preemergence herbicidal rating CHEAL ([8]; rate 0.0313 kg/ha) | Preemergence herbicidal rating CHEAL ([8]; rate 0.0625 kg/ha) | Preemergence herbicidal rating CHEAL ([8]; rate 0.2500 kg/ha)
1.0: Preemergence herbicidal rating SETVI (SETVI (Foxtail, Green) [1]; rate 0.0156 kg/ha) | Preemergence herbicidal rating SETVI (SETVI (Foxtail, Green) [1]; rate 0.0625 kg/ha) | Preemergence herbicidal rating CASOB (CASOB (Sicklepod) [3]; rate 0.1250 kg/ha) | Preemergence herbicidal rating CASOB (CASOB (Sicklepod) [3]; rate 0.2500 kg/ha) | herbicidal rating CASOB (CASOB (Sicklepod) [5]; rate 0.0315 kg/ha) | herbicidal rating CASOB (CASOB (Sicklepod) [5]; rate 0.0630 kg/ha) | herbicidal rating SETVI (SETVI (Foxtail, Green) [10]; rate 0.0158 kg/ha) | herbicidal rating GALAP (GALAP (Galium) [14]; rate 0.0158 kg/ha) | herbicidal rating GALAP (GALAP (Galium) [14]; rate 0.0315 kg/ha) | herbicidal rating GALAP (GALAP (Galium) [14]; rate 0.0630 kg/ha)
6.0: Preemergence herbicidal rating CHEAL ([8]; rate 0.1250 kg/ha)
